Reference: patent US7446199B2, “Compositions useful as inhibitors of protein kinases” (Vertex Pharmaceuticals Incorporated, priority 2003, dated 2008)

Target: T1, Aurora-2 (Homo sapiens, UniProt O14965)
T1 construct: addition of 10 μL of Aurora-2 stock solution to give a final concentration of 70 nM
T1 sequence (O14965 1-403): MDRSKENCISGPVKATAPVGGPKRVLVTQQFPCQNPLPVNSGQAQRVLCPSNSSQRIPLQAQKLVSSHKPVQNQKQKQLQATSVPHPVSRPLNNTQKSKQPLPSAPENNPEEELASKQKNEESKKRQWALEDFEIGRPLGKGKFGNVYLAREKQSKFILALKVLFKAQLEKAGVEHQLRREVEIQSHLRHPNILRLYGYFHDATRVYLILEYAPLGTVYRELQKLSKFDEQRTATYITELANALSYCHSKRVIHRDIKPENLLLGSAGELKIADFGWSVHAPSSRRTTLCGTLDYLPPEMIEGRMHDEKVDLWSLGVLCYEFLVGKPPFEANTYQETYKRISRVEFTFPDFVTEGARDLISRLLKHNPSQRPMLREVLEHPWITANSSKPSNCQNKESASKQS
Experiment: Inhibition of AUR-2, coupled enzyme assay
Format: biochemical
Conditions: 70 nM Aurora-2, 800 μM peptide LRRASLG, 30° C.
Protocol: Compounds are screened in the following manner for their ability to inhibit Aurora-2 using a standard coupled enzyme assay (Fox et al. (1998) Protein Sci 7, 2249). To an assay stock buffer solution containing 0.1M HEPES 7.5, 10 mM MgCl2, 1 mM DTT, 25 mM NaCl, 2.5 mM phosphoenolpyruvate, […], […], […], and 800 μM peptide (LRRASLG, American Peptide, Sunnyvale, Calif.) is added a DMSO solution of a compound of the present invention to a final concentration of 30 μM. The resulting mixture is incubated at 30° C. for 10 min. The reaction was initiated by the addition of 10 μL of Aurora-2 stock solution to give a final concentration of 70 nM in the assay. The rates of reaction are obtained by monitoring absorbance at 340 nm over a 5 minute read time at 30° C. using a BioRad Ultramark plate reader (Hercules, Calif.). The Ki values are determined from the rate data as a function of inhibitor concentration.

SMILES	Ki [nM]
Nc1cccc(-c2cnc3[nH]cc(-c4oncc4-c4cccc(F)c4F)c3c2)c1 [Compound 86, 3-{3-[4-(2,3-Difluoro-phenyl)-isoxazol-5-yl]-1H-pyrrolo [2,3-b]pyridin-5-yl}-phenylamine]	< 200
O=c1[nH]ccc2c(-c3oncc3-c3cccc(F)c3F)c[nH]c12 [Compound 145, 3-[4-(2,3-Difluoro-phenyl)-isoxazol-5-yl]-1,6-dihydro-pyrrolo[2,3-c]pyridin-7-one]	200 to 1000
Fc1cccc(-c2cnoc2-c2c[nH]c3ncc(-c4c[nH]cn4)cc23)c1F [Compound 76, 3-[4-(2,3-Difluoro-phenyl)-isoxazol-5-yl]-5-(3H-imidazol-4-yl)-1H-pyrrolo[2,3-b]pyridine]	< 200
Nc1ccc(-c2cnc3[nH]cc(-c4oncc4-c4cccc(F)c4F)c3c2)cc1 [Compound 90, 4-{3-[4-(2,3-Difluoro-phenyl)-isoxazol-5-yl]-1H-pyrrolo [2,3-b]pyridin-5-yl}-phenylamine]	< 200
Fc1cccc(-c2cnoc2-c2c[nH]c3ncc(-c4ccccc4)cc23)c1F [Compound 58, 3-[4-(2,3-Difluoro-phenyl)-isoxazol-5-yl]-5-phenyl-1H-pyrrolo[2,3-b]pyridine]	200 to 1000
COc1cncc(-c2cnc3[nH]cc(-c4oncc4-c4cccc(F)c4F)c3c2)c1 [Compound 96, 3-[4-(2,3-Difluoro-phenyl)-isoxazol-5-yl]-5-(5-methoxy-pyridin-3-yl)-1H-pyrrolo[2,3-b]pyridine]	< 200
CN(C)Cc1ccnc(-c2cnc3[nH]cc(-c4oncc4-c4cccc(F)c4F)c3c2)c1 [Compound 82, (2-{3-[4-(2,3-Difluoro-phenyl)-isoxazol-5-yl]-1H-pyrrolo[2,3-b]pyridin-5-yl}-pyridin-4-ylmethyl)-dimethyl-amine]	200 to 1000
CN(C)Cc1ccc(-c2cnc3[nH]cc(-c4oncc4-c4cccc(F)c4F)c3c2)cc1 [Compound 91, (4-{3-[4-(2,3-Difluoro-phenyl)-isoxazol-5-yl]-1H-pyrrolo[2,3-b]pyridin-5-yl}-benzyl)-dimethyl-amine]	200 to 1000
Fc1cccc(-c2cnoc2-c2c[nH]c3ncc(-c4ccc(CN5CCOCC5)cc4)cc23)c1F [Compound 92, 3-[4-(2,3-Difluoro-phenyl)-isoxazol-5-yl]-5-(4-morpholin-4-ylmethyl-phenyl)-1H-pyrrolo[2,3-b]pyridine]	< 200
c1cnc2[nH]cc(-c3oncc3C3CCCCC3)c2c1 [Compound 47, 3-(4-Cyclohexyl-isoxazol-5-yl)-1H-pyrrolo[2,3-b]pyridine]	200 to 1000
CC(=O)Nc1cccc(-c2cnc3[nH]cc(-c4oncc4-c4cccc(F)c4F)c3c2)c1 [Compound 65, N-(3-{3-[4-(2,3-Difluoro-phenyl)-isoxazol-5-yl]-1H-pyrrolo[2,3-b]pyridin-5-yl}-phenyl)-acetamide]	< 200
CC(=O)Nc1ccc(-c2cnc3[nH]cc(-c4oncc4-c4cccc(F)c4F)c3c2)cc1 [Compound 95, N-(4-{3-[4-(2,3-Difluoro-phenyl)-isoxazol-5-yl]-1H-pyrrolo[2,3-b]pyridin-5-yl}-phenyl)-acetamide]	< 200
Fc1cccc(-c2cnoc2-c2c[nH]c3ncc(-c4ccncc4)cc23)c1F [Compound 57, 3-[4-(2,3-Difluoro-phenyl)-isoxazol-5-yl]-5-pyridin-4-yl-1H-pyrrolo[2,3-b]pyridine]	< 200
Oc1cccc(-c2cnc3[nH]cc(-c4oncc4-c4cccc(F)c4F)c3c2)c1 [Compound 87, 3-{3-[4-(2,3-Difluoro-phenyl)-isoxazol-5-yl]-1H-pyrrolo [2,3-b]pyridin-5-yl}-phenol]	< 200
Fc1cccc(-c2cnoc2-c2c[nH]c3ncc(-c4ccc(CN5CCCC5)cc4)cc23)c1F [Compound 93, 3-[4-(2,3-Difluoro-phenyl)-isoxazol-5-yl]-5-(4-pyrrolidin-1-ylmethyl-phenyl)-1H-pyrrolo[2,3-b]pyridine]	< 200
CN1CCN(Cc2ccc(-c3cnc4[nH]cc(-c5oncc5-c5cccc(F)c5F)c4c3)cc2)CC1 [Compound 94, 3-[4-(2,3-Difluoro-phenyl)-isoxazol-5-yl]-5-[4-(4-methyl-piperazin-1-ylmethyl)-phenyl]-1H-pyrrolo[2,3-b]pyridine]	< 200

Other lines, results leading:

Ki [nM]	SMILES
< 200	Fc1cccc(-c2cnoc2-c2c[nH]c3ncc(-c4cccnc4)cc23)c1F [Compound 59, 3-[4-(2,3-Difluoro-phenyl)-isoxazol-5-yl]-5-pyridin-3-yl-1H-pyrrolo[2,3-b]pyridine]
< 200	Fc1cccc(-c2cnoc2-c2c[nH]c3ncc(Br)cc23)c1F [Compound 37, 5-Bromo-3-[4-(2,3-difluoro-phenyl)-isoxazol-5-yl]-1H-pyrrolo[2,3-b]pyridine]
200 to 1000	COc1cnc2[nH]cc(-c3oncc3-c3cccc(F)c3F)c2c1 [Compound 38, 3-[4-(2,3-Difluoro-phenyl)-isoxazol-5-yl]-5-methoxy-1H-pyrrolo[2,3-b]pyridine]
200 to 1000	Nc1ccnc(-c2cnc3[nH]cc(-c4oncc4-c4cccc(F)c4F)c3c2)c1 [Compound 83, 2-{3-[4-(2,3-Difluoro-phenyl)-isoxazol-5-yl]-1H-pyrrolo [2,3-b]pyridin-5-yl}-pyridin-4-ylamine]
200 to 1000	Oc1cnc2[nH]cc(-c3oncc3-c3cccc(F)c3F)c2c1 [Compound 43, 3-[4-(2,3-Difluoro-phenyl)-isoxazol-5-yl]-1H-pyrrolo[2,3-b]pyridin-5-ol]
200 to 1000	Fc1c(Cl)cccc1-c1cnoc1-c1c[nH]c2ncccc12 [Compound 42, 3-[4-(3-Chloro-2-fluoro-phenyl)-isoxazol-5-yl]-1H-pyrrolo[2,3-b]pyridine]
200 to 1000	Fc1cccc(-c2cnoc2-c2c[nH]c3ncc(-c4ncccn4)cc23)c1F [Compound 75, 3-[4-(2,3-Difluoro-phenyl)-isoxazol-5-yl]-5-pyrimidin-2-yl-1H-pyrrolo[2,3-b]pyridine]
200 to 1000	Cc1noc(-c2c[nH]c3ncccc23)c1-c1cccc(F)c1F [Compound 134, 3-[4-(2,3-Difluoro-phenyl)-3-methyl-isoxazol-5-yl]-1H-pyrrolo[2,3-b]pyridine]
200 to 1000	Fc1cccc(-c2cnoc2-c2c[nH]c3ncccc23)c1F [Compound 1, 3-[4-(2,3-Difluoro-phenyl)-isoxazol-5-yl]-1H-pyrrolo[2,3-b]pyridine]
200 to 1000	Clc1cccc(-c2cnoc2-c2c[nH]c3ncccc23)c1Cl [Compound 2, 3-[4-(2,3-Dichloro-phenyl)-isoxazol-5-yl]-1H-pyrrolo[2,3-b]pyridine]
